This is an account of results in patent US10377770B2 (Novartis AG, priority 2015, dated 2019).

The assay concerns the target C-Raf FL (full length CRAF with Y340E and Y341E activating mutations, co-expressed with h14-3-3 zeta) (Homo sapiens (Human), UniProt P04049, Y340E/Y341E). The assay is described as follows: In vitro Raf activity determination, AlphaScreen p-MEK readout, c-Raf (C-Raf FL). The format is biochemical. To be noted: c-Raf approximately 4 nM, ATP 1 μM, pre-incubation 60 minutes, reaction 1 hour. In a few lines:
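Phosphorylation of kinase-dead biotinylated MEK1 (~10 nM) by C-Raf FL (~4 nM) read by AlphaScreen luminescence with anti-phospho-MEK1/2 after EDTA stop. ATP was 1 μM, with a 1 h reaction at room temperature. Compounds were pre-incubated with enzyme and substrate for 60 min in Tris/MgCl2 buffer, pH 7.5.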

Molecules are shown by their SMILES.

Sequence of C-Raf FL (full length CRAF with Y340E and Y341E activating mutations, co-expressed with h14-3-3 zeta) (P04049 whole entry Y340E/Y341E): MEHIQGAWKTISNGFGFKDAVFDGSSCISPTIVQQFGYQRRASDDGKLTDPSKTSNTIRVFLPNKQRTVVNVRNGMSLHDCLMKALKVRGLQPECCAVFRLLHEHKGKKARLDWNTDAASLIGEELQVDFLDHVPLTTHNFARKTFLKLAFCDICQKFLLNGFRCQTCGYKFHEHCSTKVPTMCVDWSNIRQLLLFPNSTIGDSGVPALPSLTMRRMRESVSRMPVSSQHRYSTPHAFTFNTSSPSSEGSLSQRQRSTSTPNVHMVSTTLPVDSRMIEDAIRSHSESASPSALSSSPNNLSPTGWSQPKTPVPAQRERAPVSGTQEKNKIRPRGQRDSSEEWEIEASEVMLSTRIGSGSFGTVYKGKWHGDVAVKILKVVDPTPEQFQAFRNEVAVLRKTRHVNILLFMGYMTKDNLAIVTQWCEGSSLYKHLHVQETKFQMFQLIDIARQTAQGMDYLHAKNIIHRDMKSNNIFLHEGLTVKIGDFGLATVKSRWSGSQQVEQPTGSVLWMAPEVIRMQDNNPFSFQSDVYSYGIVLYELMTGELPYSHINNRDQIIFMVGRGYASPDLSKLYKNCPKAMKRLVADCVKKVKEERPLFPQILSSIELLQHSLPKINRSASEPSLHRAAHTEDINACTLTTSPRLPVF
Sequence of C-Raf FL (full length CRAF with Y340E and Y341E activating mutations, co-expressed with h14-3-3 zeta) (P63104 whole entry partner): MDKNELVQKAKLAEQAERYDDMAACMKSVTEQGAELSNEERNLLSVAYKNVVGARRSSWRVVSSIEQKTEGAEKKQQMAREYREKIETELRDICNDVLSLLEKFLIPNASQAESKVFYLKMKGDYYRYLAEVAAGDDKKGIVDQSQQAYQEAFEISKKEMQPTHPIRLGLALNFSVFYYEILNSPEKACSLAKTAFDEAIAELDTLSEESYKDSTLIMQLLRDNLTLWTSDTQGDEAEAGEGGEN

For the compound `Cc1ccc(NC(=O)c2ccnc(C(C)(F)F)c2)cc1-c1cnc2c(c1)[C@@H]1CCOC[C@H]1C(=O)N2C(C)C` [Example 263, 2-(1,1-difluoroethyl)-N-(3-((4aS, 10bR)-6-isopropyl-5-oxo-2,4,4a,5,6,10b-hexahydro-1H-pyrano[3,4-c][1,8]naphthyridin-9-yl)-4-methylphenyl) isonicotinamide], the IC50 (in general, the concentration that inhibits the measured activity by half) is 300 pM.

Compound `CCN1C(=O)CC2COCCN2c2cc(-c3cc(NC(=O)c4ccnc(C(C)(F)F)c4)ccc3C)cnc21` (racemic) [Example 125, rac-2-(1,1-Difluoroethyl)-N-(3-(7-ethyl-6-oxo-1,2,4a,5,6,7-hexahydro-4H-[1,4]oxazino[4,3-d]pyrido[2,3-b][1,4]diazepin-10-yl)-4-methylphenyl)isonicotinamide] gave an IC50 of 34 pM.

With `Cc1ccc(NC(=O)c2ccnc(C(C)(C)F)c2)cc1-c1cc2n(c(=O)c1)CCC1CCOCCN21` (stereo in doubt) [Example 418, (S)-2-(2-fluoropropan-2-yl)-N-(4-methyl-3-(9-oxo-1,2,5,5a,6,7-hexahydro-4H,9H-pyrido[2′,1′:2,3]pyrimido[1,6-d][1,4]oxazepin-11-yl)phenyl)isonicotinamide], the midpoint of inhibition, the IC50, lay at 2100 pM.

The compound `Cc1ccc(NC(=O)c2ccnc(C(F)(F)F)c2)cc1-c1cnc2c(c1)N1CCOC[C@H]1C[C@@H]2O` (racemic) [Example 101, rac-cis-N-(3-(6-hydroxy-1,2,4,4a,5,6-hexahydro-[1,4]oxazino[4,3-a][1,5]naphthyridin-9-yl)-4-methylphenyl)-2-(trifluoromethyl)isonicotinamide] came in with an IC50 of 26 pM.

For the compound `Cc1ccc(NC(=O)c2ccnc(C(F)(F)F)c2)cc1-c1cnc2c(c1)N1CCOC[C@@H]1C1(COC1)C2` [Example 155, (S)-N-(4-methyl-3-(1′,2′,4′,4a′-tetrahydro-6′H-spiro[oxetane-3,5′-[1,4]oxazino[4,3-a][1,5]naphthyridin]-9′-yl)phenyl)-2-(trifluoromethyl)isonicotinamide], the IC50 is 360 pM.

As to `Cc1ccc(NC(=O)c2cncc(C(F)(F)F)c2)cc1-c1ccc2c(c1)N1CCOC[C@H]1[C@](F)(CO)C2` [Example 387, N-(3-((4aS,5S)-5-fluoro-5-(hydroxymethyl)-1,2,4,4a,5,6-hexahydro-[1,4]oxazino[4,3-a]quinolin-9-yl)-4-methylphenyl)-5-(trifluoromethyl)nicotinamide], the IC50 was determined as 300 pM.

`Cc1ncc(NC(=O)c2cccc(C(F)(F)F)c2)cc1-c1cc(F)c2c(c1)N1CCOC[C@H]1[C@@](F)(CO)C2` [Example 431, N-(5-((4aS,5R)-5,7-difluoro-5-(hydroxymethyl)-1,2,4,4a,5,6-hexahydro-[1,4]oxazino[4,3-a]quinolin-9-yl)-6-methylpyridin-3-yl)-3-(trifluoromethyl)benzamide]: the IC50 came out at 4400 pM.

Take `Cc1ccc(NC(=O)c2ccnc(C(F)(F)F)c2)cc1-c1cnc2c(c1)N1CCOC[C@H]1[C@@](C#N)(CF)C2` [Example 520]: the midpoint of inhibition, the IC50, lay at 100 pM.

`Cc1ccc(NC(=O)c2ccnc(C(C)(F)F)c2)cc1-c1cnc2c(c1)N1CCOC[C@H]1[C@H](F)[C@H]2O` (relative stereo) [Example 140, rac-2-(1,1-difluoroethyl)-N-(3-((4aS*,5S*,6S*)-5-fluoro-6-hydroxy-1,2,4,4a,5,6-hexahydro-[1,4]oxazino[4,3-a][1,5]naphthyridin-9-yl)-4-methylphenyl)isonicotinamide]: the IC50 came to 8.5 pM.

`Cc1ccc(NC(=O)c2ccnc(C(C)(C)F)c2)cc1-c1ccc2c(c1)N1CCOCC1C(CS(C)(=O)=O)C2` (racemic) [Example 365, (rac)-2-(2-fluoropropan-2-yl)-N-(4-methyl-3-(5-((methylsulfonyl)methyl)-1,2,4,4a,5,6-hexahydro-[1,4]oxazino[4,3-a]quinolin-9-yl)phenyl)isonicotinamide] came in with an IC50 of 200 pM.
